The record followed here is ChEMBL document CHEMBL1743341, “Cytochrome p450 enzymes mechanism based inhibitors: common sub-structures and reactivity” (Curr Drug Metab, 2005).

The target of series [1] is T1, Cytochrome P450 2C11 (Rattus norvegicus, UniProt P08683).
T1 sequence (P08683 whole entry): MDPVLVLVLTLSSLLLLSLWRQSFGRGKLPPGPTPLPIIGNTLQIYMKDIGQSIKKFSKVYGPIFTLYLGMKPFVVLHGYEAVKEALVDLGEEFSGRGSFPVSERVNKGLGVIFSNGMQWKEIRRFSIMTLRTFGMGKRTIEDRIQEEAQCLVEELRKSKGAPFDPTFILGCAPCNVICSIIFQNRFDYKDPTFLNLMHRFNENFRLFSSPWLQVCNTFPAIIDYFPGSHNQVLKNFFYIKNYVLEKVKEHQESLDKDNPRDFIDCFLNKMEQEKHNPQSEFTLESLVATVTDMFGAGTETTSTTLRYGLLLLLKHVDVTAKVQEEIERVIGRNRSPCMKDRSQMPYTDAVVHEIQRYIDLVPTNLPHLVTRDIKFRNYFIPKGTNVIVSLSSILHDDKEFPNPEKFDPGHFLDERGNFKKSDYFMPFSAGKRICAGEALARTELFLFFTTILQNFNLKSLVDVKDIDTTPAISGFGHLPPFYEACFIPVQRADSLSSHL
Put plainly: Mechanism based inhibition of rat cytochrome P450 CYP2C11 measured by 2-alpha and 16-alpha hydroxylation of testosterone. It is filed as ADME.

The target in series [2] is T2, Cytochrome P450 2C8 (Homo sapiens, UniProt P10632).
T2 sequence (P10632 whole entry): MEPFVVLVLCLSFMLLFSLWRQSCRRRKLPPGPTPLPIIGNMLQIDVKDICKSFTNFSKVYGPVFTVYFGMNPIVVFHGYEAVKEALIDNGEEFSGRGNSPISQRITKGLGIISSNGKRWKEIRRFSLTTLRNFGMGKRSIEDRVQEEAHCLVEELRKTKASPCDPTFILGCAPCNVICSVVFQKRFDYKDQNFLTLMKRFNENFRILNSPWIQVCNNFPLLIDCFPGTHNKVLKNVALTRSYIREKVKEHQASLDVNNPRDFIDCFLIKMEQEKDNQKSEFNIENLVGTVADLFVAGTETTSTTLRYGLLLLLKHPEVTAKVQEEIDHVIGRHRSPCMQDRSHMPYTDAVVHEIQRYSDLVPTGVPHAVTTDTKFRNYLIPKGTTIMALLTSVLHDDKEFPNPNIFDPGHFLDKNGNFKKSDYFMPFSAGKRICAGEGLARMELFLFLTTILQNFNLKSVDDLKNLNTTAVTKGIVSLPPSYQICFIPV
Description: (§2) Mechanism based inhibition of human cytochrome P450 2C8 measured by paclitaxel hydroxylation using a recombinant system

In series [3] the target is T3, CYP2C8 (Homo sapiens, UniProt P10632).
T3 sequence (P10632 whole entry): T2 sequence (P10632 whole entry)
Put plainly: in vitro. The settings on record: recombinant CYP2C8, probe paclitaxel.
Description: as §2

For series [4], the target named is T4, CYP2B6 (Homo sapiens, UniProt P20813).
T4 sequence (P20813 whole entry): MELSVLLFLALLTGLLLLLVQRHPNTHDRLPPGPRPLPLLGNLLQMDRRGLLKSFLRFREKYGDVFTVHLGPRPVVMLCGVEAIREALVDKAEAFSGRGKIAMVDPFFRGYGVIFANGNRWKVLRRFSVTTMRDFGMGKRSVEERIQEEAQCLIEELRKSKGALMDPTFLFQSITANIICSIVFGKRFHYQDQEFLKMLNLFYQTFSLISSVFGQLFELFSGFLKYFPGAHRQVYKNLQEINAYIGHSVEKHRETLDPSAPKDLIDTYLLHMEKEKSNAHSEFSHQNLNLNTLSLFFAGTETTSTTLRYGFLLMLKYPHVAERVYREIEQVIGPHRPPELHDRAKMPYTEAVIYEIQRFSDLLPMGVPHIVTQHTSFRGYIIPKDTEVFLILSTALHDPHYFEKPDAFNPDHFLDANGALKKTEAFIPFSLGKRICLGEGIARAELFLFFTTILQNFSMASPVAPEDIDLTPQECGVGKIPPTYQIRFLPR
Put plainly: (§1) Mechanism based inhibition of human cytochrome P450 2B6. Format: ADME. The settings on record: human.

In series [5] the target is T5, Cytochrome P450 2B6 (Homo sapiens, UniProt P20813).
T5 sequence (P20813 whole entry): T4 sequence (P20813 whole entry)
The series is described as §1. It is filed as ADME.

Series [6] addresses T6, Cytochrome P450 2B1 (Rattus norvegicus, UniProt P00176).
T6 sequence (P00176 whole entry): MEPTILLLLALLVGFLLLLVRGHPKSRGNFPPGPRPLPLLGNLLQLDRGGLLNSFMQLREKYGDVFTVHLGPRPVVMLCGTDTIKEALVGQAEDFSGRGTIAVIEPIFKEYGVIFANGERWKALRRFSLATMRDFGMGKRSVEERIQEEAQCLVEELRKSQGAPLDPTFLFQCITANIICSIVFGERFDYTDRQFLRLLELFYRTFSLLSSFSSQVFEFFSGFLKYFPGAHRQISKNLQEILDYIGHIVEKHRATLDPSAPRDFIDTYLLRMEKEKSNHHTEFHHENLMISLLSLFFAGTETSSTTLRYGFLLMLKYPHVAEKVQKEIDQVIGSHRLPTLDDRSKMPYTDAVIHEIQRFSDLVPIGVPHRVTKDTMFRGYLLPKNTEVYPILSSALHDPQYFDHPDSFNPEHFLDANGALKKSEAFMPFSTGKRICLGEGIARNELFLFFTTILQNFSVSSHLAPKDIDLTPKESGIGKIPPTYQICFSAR
Put plainly: Mechanism based inhibition of rat cytochrome P450 CYP2B1 measured by 7-EFC O-deethylation activity. Format: ADME. Conditions: rat.

Series [7] addresses Cytochrome P450 2E1 (Rattus norvegicus, UniProt P05182). Put plainly: Mechanism based inhibition of rat cytochrome P450 CYP2E1. Format: ADME.

Usually kinact stands for the maximal first-order rate at which the target is inactivated.

“Also recorded” adds a separate entry of the source.

Chain of Cytochrome P450 2E1 (P05182 whole entry): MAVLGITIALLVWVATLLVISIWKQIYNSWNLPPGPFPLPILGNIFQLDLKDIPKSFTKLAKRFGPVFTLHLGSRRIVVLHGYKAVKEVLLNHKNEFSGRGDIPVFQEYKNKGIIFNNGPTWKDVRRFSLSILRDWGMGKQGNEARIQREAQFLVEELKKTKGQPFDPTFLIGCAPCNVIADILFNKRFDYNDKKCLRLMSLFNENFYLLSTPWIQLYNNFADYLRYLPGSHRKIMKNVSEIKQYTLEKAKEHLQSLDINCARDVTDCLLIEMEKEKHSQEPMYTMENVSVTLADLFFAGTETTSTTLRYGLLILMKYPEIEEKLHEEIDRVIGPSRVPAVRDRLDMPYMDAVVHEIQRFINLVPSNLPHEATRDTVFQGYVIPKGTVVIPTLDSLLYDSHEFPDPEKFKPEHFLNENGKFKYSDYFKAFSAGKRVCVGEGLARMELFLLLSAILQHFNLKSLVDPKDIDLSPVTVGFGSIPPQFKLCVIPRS

On to `CNCCCN1c2ccccc2CCc2ccccc21` [DESIPRAMINE], for which the mechanism based inhibition result in series [1] is listed as “Cytochrome P450 mechanistic inhibitor: PMID 14555335”. Same read-out and setting: the same measure for `CNCCC(Oc1ccc(C(F)(F)F)cc1)c1ccccc1` (stereo not given) [FLUOXETINE]: “Cytochrome P450 mechanistic inhibitor: PMID 14555335”. Same read-out and setting: the entry for `CNCCC(Oc1ccccc1OC)c1ccccc1` (stereo not given) [NISOXETINE] is “Cytochrome P450 mechanistic inhibitor: PMID 14555335”. As to `CNCCC=C1c2ccccc2CCc2ccccc21` [NORTRIPTYLINE], in series [1], the mechanism based inhibition entry is listed as “Cytochrome P450 mechanistic inhibitor: PMID 1435757; also recorded: Cytochrome P450 mechanistic inhibitor: PMID 14555335”. Further, the Ki in series [2] stood at 49.9 µM. The kinact in series [3] was 0.0006 s⁻¹. Turning to `c1ccc(C2(N3CCCCC3)CCCCC2)cc1` [PHENCYCLIDINE], in series [4], the kinact is 0.000167 s⁻¹. The Ki in series [5] stood at 10 µM. Moreover, the mechanism based inhibition result in series [6] is on record as “Cytochrome P450 mechanistic inhibitor: PMID 9029055”.

For the molecule `ClC=C(Cl)Cl` [TRICHLOROETHYLENE], the mechanism based inhibition result in series [7] is on record as “Cytochrome P450 mechanistic inhibitor: PMID 9851676”.
